Converted amounts (≈) assume the structure as drawn.
What was measured:
IL-2 production = experiment: Interleukin-2 assay (IL-2 production, ELISA); format: cell-based, human; conditions: cells stimulated with PHA 10 µg/mL and 10^-8 M TPA; incubation 16-24 hours
Experimental: (§1) Jurkat E6-1 cell line (ATCC), a human leukemic T cell line or lymphocytes prepared from fresh human blood, are grown in compiete culture medium consisting of RPMI-1640 (Mediatech) supplemented with 10% v/v fetal bovine serum (HyClone, Logen, Vermont), penicillin (100 units/mL), streptomycin (200 µg/mL), and 2mM L-glutamine (GIBCO, Grand Island, New York). The cells are grown to a concentration of between 1.2 to 1.8 X 10^6 cells/mL before use. The cells are then centrifuged at low speed and resuspended to a concentration of 1.25 X 10^6 cells/mL in fresh medium.
(§2) The compounds to be tested are dissolved in DMSO, and water is added to make a 50% DMSO/water solution. The compounds are then diluted in sterile water such that the DMSO concentrations are less then 0.05%. The cells at a concentration of 1.25 X 10^6 cells/mL are stimulated with phytohemagglutinin 10 µg/mL (PHA) and 10^-8 M phorbol ester (12-O-tetradecanoylphorbol 13-acetate: TPA), (Sigma, St. Louis, Missouri). The compounds are then added and the cells are plated in flat-bottom tissue culture plates (Falcon, Lincoln Park, New Jersey), with 250,000 cells/well. Plates are then incubated at 37°C under an atmosphere of 5% CO2.
(§3) After incubation (16-24 hours), the cells are assayed for IL-2 production and cell viability (MTT). IL-2 production is assayed utilizing a solid phase ELISA immunoassay, sold in kit form by R&D Systems, Inc., Minneapolis, Minnesota.

Jurkat E6-1 cell line = experiment: Cell viability (MTT mitochondrial enzyme assay); format: cell-based, human; conditions: same cells after removal of supernatant for the IL-2 assay; MTT 4 hours, read at 570 nm
Experimental: as §1, §2, §3
Cell viability is measured by the use of a mitochondrial enzyme assay. After removal of the supernatant for the IL-2 assay, Cell Titer 96 (a commercial solution of MTT available from Promega, Madison, Wisconsin) is added to the plates and incubated for 4 hours at 37°C. A solubilization solution is then added and incubated overnight. The plates are then read on an ELISA plate reader at a wavelength of 570 nm. Table II presents the results for the Interleukin-2 assay, the cell viability assay and the ratio of cell viability/IL-2 inhibition.

Row | Compound | IC50/IL-2 (IL-2 production) | IC50/MTT (Jurkat E6-1 cell line)
1 | CC(C)[C@]1(O)C=C[C@@]2(O)[C@@]3(C)CCC4=C(COC4=O)C3CC[C@@]2(O)[C@@H]1O (stereo partly drawn) [Example 2, [5aR-(5aα,6α,7β,9aα,9bα)]-3b,4,5,5a,6,7,9a,9b,10,11-decahydro-5a,6,7,9a-tetrahydroxy-9b-methyl-7-(1-methylethyl)-phenanthro[1,2-c]furan-1(3H)-one] | 14 ng/mL (≈ 0.0384 µM) | 90 ng/mL (≈ 0.247 µM)
2 | [5R-(5α,5aβ,6β,7α,9aβ,9bβ)]-3b,4,5,5a,6,7,9a,10,11-decahydro-5a,6,9a-trihydroxy-9b-methyl-7-(1-methylethyl)-5,7-epoxyphenanthro[1,2-c]furan-1(3H)-one [Example 3] | 500 ng/mL | >>1,000 ng/mL
3 | [5aS-(5aα,5bα,8β,9α,9aR*,10aβ)]-4,5a,5b,8,9,10a,11,11a-octahydro-5b,8,9-trihydroxy-5a-methyl-8-(1-methylethyl)-1H-oxireno[8a,9]phenanthro[1,2-c]furan-3(5H)-one [Example 1] | 1,000 ng/mL | >>1,000 ng/mL
